Data on 6 molecules can be found in ChEMBL document CHEMBL1123847, “Synthesis and structure-activity relationship of 1-aryl-6,8-difluoroquinolone antibacterial agents” (1987).

The subject of test [1] is Klebsiella aerogenes. Nature of the test: In vitro antibacterial activity against Enterobacter aerogenes ATCC 13048. The format is functional.
Test [2] has as its system Escherichia coli. Description: In vitro antibacterial activity against Escherichia coli Juhl. Type of test: functional.
Test [3] concerns Klebsiella pneumoniae. Description: In vitro antibacterial activity against Klebsiella pneumoniae 8045. Type of test: functional.
For test [4], the system named is Pseudomonas aeruginosa. Nature of the test: In vitro antibacterial activity against Pseudomonas aeruginosa K799/WT. Type of test: functional.
The subject of test [5] is Staphylococcus epidermidis. Nature of the test: In vitro antibacterial activity against Staphylococcus epidermis 3519. The format is functional.
Test [6] deals with Streptococcus pyogenes. Nature of the test: In vitro antibacterial activity against Streptococcus pyogenes 930. The format is functional.
Test [7] deals with Staphylococcus aureus. Nature of the test: In vitro antibacterial activity against Staphylococcus aureus CMX 686B. The format is functional.
Test [8] deals with Staphylococcus aureus. Nature of the test: In vitro antibacterial activity against Staphylococcus aureus ATCC 6538P. Type of test: functional.
Test [9] deals with Enterococcus faecium. Nature of the test: In vitro antibacterial activity against Streptococcus faecium ATCC 8043. The format is functional.
In test [10] the test system is Acinetobacter. Description: In vitro antibacterial activity against Acinetobacter CMX 669. The format is functional.
For test [11], the system named is Pseudomonas aeruginosa. Description: In vitro antibacterial activity against Pseudomonas aeruginosa 5007. Type of test: functional.
Test [12] concerns Escherichia coli. Description: […] against Escherichia coli Juhl (100 X LD50); Range is between (2.0-5.0). The format is functional.
Test [13] has as its system Escherichia coli. Description: Compound was evaluated in vivo for antibacterial activity against Escherichia coli Juhl (100 X LD50) (s.c. administration); range is between (0.6-2.5). The format is functional. Particulars: sc.
Test [14] deals with Escherichia coli. Description: Compound was evaluated in vivo for antibacterial activity against Escherichia coli Juhl (100 X LD50). The format is functional.
Test [15] deals with Pseudomonas aeruginosa. Nature of the test: […] against Pseudomonas aeruginosa 5007 (100 X LD50) (peroral administration); Range is between (15.8-[…]). Type of test: functional. To be noted: po.
The subject of test [16] is Pseudomonas aeruginosa. Nature of the test: […] against Pseudomonas aeruginosa 5007 (100 X LD50) (subcutaneous administration); Range is between (4.9-8.1). To be noted: sc. Type of test: functional.
Test [17] deals with Pseudomonas aeruginosa. Description: Compound was evaluated in vivo for antibacterial activity against Pseudomonas aeruginosa 5007 (100 X LD50) (p.o. administration); Range is between (15.8-39.6). Type of test: functional. To be noted: po.
Test [18] concerns Pseudomonas aeruginosa. Nature of the test: Compound was evaluated in vivo for antibacterial activity against Pseudomonas aeruginosa 5007 (100 X LD50) (s.c. administration); Range is between (4.9-8.1). Type of test: functional. Particulars: sc.
For test [19], the system named is Staphylococcus aureus. Nature of the test: Compound was evaluated in vivo for antibacterial activity against Staphylococcus aureus NCTC 10649 (100 X LD50) (p.o. administration); Range is between (7.9-19-7). To be noted: po. The format is functional.
Test [20] relates to Staphylococcus aureus. Nature of the test: Compound was evaluated in vivo for antibacterial activity against Staphylococcus aureus NCTC 10649 (100 X LD50) (s.c. administration); Range is between (1.0-2.5). The format is functional. Particulars: sc.
Test [21] deals with Staphylococcus aureus. Description: In vitro mouse protection test against Staphylococcus aureus NCTC 10649 (100 X LD50) (s.c. administration); Range is between (1.0-2.5). Type of test: functional. Particulars: sc.
The subject of test [22] is Staphylococcus aureus. Description: In vitro mouse protection test against Staphylococcus aureus NCTC 10649 (100 X LD50),(peroral administration); Range is between (7.9-19-7). The format is functional. Particulars: po.
Test [23] has as its system Escherichia coli. Description: […] against Escherichia coli Juhl (100 X LD50) (s.c. administration); Range is between (0.6-1.5). The format is functional. Particulars: sc.
The subject of test [24] is Escherichia coli. Nature of the test: Compound was evaluated in vivo for antibacterial activity against Escherichia coli Juhl (100 X LD50) (p.o. administration); Range is between (2.0-5.0). Type of test: functional. Particulars: po.
For test [25], the system named is Pseudomonas aeruginosa. Description: In vitro mouse protection test against Pseudomonas aeruginosa 5007 (100 X LD50) (subcutaneous administration; Range is between (1.1-3.8). The format is functional. Particulars: sc.
Test [26] concerns Pseudomonas aeruginosa. Description: […] against Pseudomonas aeruginosa 5007 (100 X LD50) (p.o. administration ); Range is between (6.8-26.2). Particulars: po. Type of test: functional.
The test system of test [27] is Escherichia coli. Description: animal or person. Particulars: in Mus musculus, sc.
In test [28] the test system is Escherichia coli. Description: animal or person. To be noted: in Mus musculus, po.
In test [29] the test system is Staphylococcus aureus. Description: animal or person. Particulars: in Mus musculus, po.
Description: In vitro mouse protection test against Staphylococcus aureus NCTC 10649 (100 X LD50) (p.o. administration );Range is between (9.9-24.1)
The subject of test [30] is Staphylococcus aureus. Description: animal or person. To be noted: in Mus musculus, sc.
Description: In vitro mouse protection test against Staphylococcus aureus NCTC 10649 (100 X LD50) (s.c. administration );Range is between (1.0-2.5)

In brackets after ≈: the same amount, converted by molar mass.

What is called MIC is the lowest concentration found to suppress growth. A lower MIC goes with a more susceptible organism. On to `CN1CCN(c2cc3c(cc2F)c(=O)c(C(=O)O)cn3-c2ccc(F)cc2)CC1` [DIFLOXACIN], for which the MIC in test [1] was 0.78 µg/mL (≈ 1.95 µM); in [2], 0.2 µg/mL (≈ 0.501 µM); in [3], 0.1 µg/mL (≈ 0.25 µM); in test [4], 1.56 µg/mL (≈ 3.91 µM); in [5], 0.39 µg/mL (≈ 0.976 µM); in test [6], 1.56 µg/mL (≈ 3.91 µM). Also, the MIC in [7] amounted to 0.2 µg/mL (≈ 0.501 µM); in test [8], 0.2 µg/mL (≈ 0.501 µM); in test [9], 1.56 µg/mL (≈ 3.91 µM); in test [10], 0.78 µg/mL (≈ 1.95 µM); in test [11], 0.78 µg/mL (≈ 1.95 µM).
Usually ED50 stands for the dose at which the effect has come halfway, by size or by number of responders. The low end stands for an effect at a small dose, the high end for a need for a large dose. As to `O=C(O)c1cn(-c2ccc(F)cc2)c2c(F)c(N3CCNCC3)c(F)cc2c1=O`, the ED50 in test [12] worked out at 3.2 mg/kg; in test [13] it was 1 mg/kg; in [15], 25 mg/kg; in test [16] it was 6.3 mg/kg; in [17] it was 25 mg/kg; in test [18] it was 6.3 mg/kg. The 50% effective dose (ED50) amounted to 12.5 mg/kg in [19]; 1.6 mg/kg in [20]; 1.6 mg/kg in test [21]; 12.5 mg/kg in [22]; 1 mg/kg in test [23]; 3.2 mg/kg in [24]. The MIC is 0.1 µg/mL (≈ 0.248 µM) in test [14]; 0.1 µg/mL (≈ 0.248 µM) in test [1]; 0.1 µg/mL (≈ 0.248 µM) in test [2]; 0.05 µg/mL (≈ 0.124 µM) in test [3]; 0.39 µg/mL (≈ 0.967 µM) in test [4]; 0.78 µg/mL (≈ 1.93 µM) in test [5]. For the same molecule, the MIC in test [6] came out at 1.56 µg/mL (≈ 3.87 µM); in test [7] it was 0.39 µg/mL (≈ 0.967 µM); in test [8] it was 0.39 µg/mL (≈ 0.967 µM); in [9], 6.2 µg/mL (≈ 15.4 µM); in test [10], 0.39 µg/mL (≈ 0.967 µM); in [11], 0.78 µg/mL (≈ 1.93 µM).
Turning to `NC1CCN(c2c(F)cc3c(=O)c(C(=O)O)cn(-c4ccc(F)cc4F)c3c2F)C1` (centres undefined), the minimum inhibitory concentration (MIC) came to 0.2 µg/mL (≈ 0.475 µM) in [1]; 0.1 µg/mL (≈ 0.237 µM) in [2]; 0.1 µg/mL (≈ 0.237 µM) in [3]; 0.78 µg/mL (≈ 1.85 µM) in test [4]; 0.39 µg/mL (≈ 0.926 µM) in test [5]; 0.78 µg/mL (≈ 1.85 µM) in [6]. Moreover, the minimal inhibitory concentration (MIC) was 0.2 µg/mL (≈ 0.475 µM) in test [7]; 0.2 µg/mL (≈ 0.475 µM) in test [8]; 1.56 µg/mL (≈ 3.7 µM) in test [9]; 0.39 µg/mL (≈ 0.926 µM) in test [10]; 1.56 µg/mL (≈ 3.7 µM) in test [11].
Regarding `CCn1cc(C(=O)O)c(=O)c2cc(F)c(N3CCNCC3)cc21` [NORFLOXACIN], the minimal inhibitory concentration (MIC) in [1] amounted to 0.2 µg/mL (≈ 0.626 µM); in [2] it was 0.1 µg/mL (≈ 0.313 µM); in test [3], 0.1 µg/mL (≈ 0.313 µM); in [4], 0.39 µg/mL (≈ 1.22 µM); in [5], 1.56 µg/mL (≈ 4.89 µM); in [6], 3.1 µg/mL (≈ 9.71 µM). Further, the minimal inhibitory concentration (MIC) in [7] is 0.78 µg/mL (≈ 2.44 µM); in test [8], 0.78 µg/mL (≈ 2.44 µM); in [9], 0.78 µg/mL (≈ 2.44 µM); in [10] it was 6.2 µg/mL (≈ 19.4 µM); in test [11] it was 0.39 µg/mL (≈ 1.22 µM).
Regarding `O=C(O)c1cn(C2CC2)c2cc(N3CCNCC3)c(F)cc2c1=O` [CIPROFLOXACIN], the MIC came out at 0.05 µg/mL (≈ 0.151 µM) in [1]; 0.02 µg/mL (≈ 0.0604 µM) in [3]; 0.1 µg/mL (≈ 0.302 µM) in test [4]; 0.39 µg/mL (≈ 1.18 µM) in test [5]; 0.39 µg/mL (≈ 1.18 µM) in [6]; 0.39 µg/mL (≈ 1.18 µM) in test [7]. In addition, the MIC in test [8] stood at 0.2 µg/mL (≈ 0.604 µM); in [9], 0.2 µg/mL (≈ 0.604 µM); in test [10] it was 1.56 µg/mL (≈ 4.71 µM); in [11], 0.1 µg/mL (≈ 0.302 µM). Also, the ED50 in test [25] is 2.1 mg/kg; in test [26], 13.3 mg/kg; in test [27] it was 0.2 mg/kg; in [28], 1.9 mg/kg; in test [29] it was 15.5 mg/kg; in [30], 1.6 mg/kg.
As to `NC1CCN(c2cc3c(cc2F)c(=O)c(C(=O)O)cn3-c2ccc(F)cc2)C1` (centres undefined), the MIC in [1] came out at 0.05 µg/mL (≈ 0.13 µM); in test [2] it was 0.02 µg/mL (≈ 0.0519 µM); in test [3] it was 0.02 µg/mL (≈ 0.0519 µM); in test [4] it was 0.2 µg/mL (≈ 0.519 µM); in test [5] it was 0.05 µg/mL (≈ 0.13 µM); in test [6], 0.1 µg/mL (≈ 0.259 µM). Besides, the minimum inhibitory concentration (MIC) in test [7] stood at 0.05 µg/mL (≈ 0.13 µM); in test [8] it was 0.05 µg/mL (≈ 0.13 µM); in test [9], 0.78 µg/mL (≈ 2.02 µM); in test [10], 0.2 µg/mL (≈ 0.519 µM); in test [11], 0.2 µg/mL (≈ 0.519 µM).
